Test results taken from publication PMC13223490, “New Indazole Derivatives as Potential Scaffolds for the Development of Anticancer, Antiviral, and Anti-tuberculosis Chemotherapeutic Compounds” (Current Medicinal Chemistry, 2025).
Values after ≈ are worked out from the molar mass of the structure shown. Values joined by “and” are separate entries in the source; they are usually repeats but may differ in a detail not shown here. Equal entries are not always repeated. “Also recorded” adds a separate entry of the source. Structures can show the parent of a compound that is named as a salt. Where two headings read alike, the source gives them in different places.

Assays:
M. tuberculosis [1] = test system: M. tuberculosis; design: method as in PMID 37111241; settings: cited from earlier work
HL60 leukemia cells = assay: Cytotoxicity on tumor cell cultures (resazurin, 48 h); type: cell-based; settings: HL60, 48 h
Description: (§1) The total well volume was 150 μl.

K562 leukemia cells = assay: as above; type: cell-based; settings: K562, 48 h
Description: as §1

[2] = test system: SH-SY5Y neuroblastoma cells; assay: as above; type: cell-based
Description: as §1

[3] = test system: GBM5522 low-passage primary glioblastoma multiforme cells; assay: as above
Description: The low-passage primary glioblastoma multiforme cell culture GBM5522 was previously described [37]. Cells were cultured in DMEM (Servicebio) containing 10% fetal bovine serum (FBS) at 37°C in an atmosphere of 5% CO2. The cells were plated in 96-well plates at a density of 1x10^4 cells/well. The test substances were then added in concentrations ranging from 0.8 to 100 μM. DMSO at a concentration of 1% was used as a control, corresponding to the percentage of DMSO when the highest concentration of the drug was added. The total well volume was 150 μl. The cells were incubated for 48 hours at 37°C in a 5% CO2 atmosphere. Resazurin was added in a concentration of 10 μl of a 0.5 mg/mL solution in phosphate-buffered saline. The incubation was carried out under the same conditions for 4 hours, and then the fluorescence level was measured at an excitation wavelength of 560 nm and an emission wavelength of 590 nm using a CLARIOstar multimodal microplate reader (BMG Labtech, Germany). The data obtained for each concentration were normalized to the control, and the IC50 was calculated using the nonlinear regression method. The minimum number of repetitions for each concentration was three. The GraphPad Prism software v.9.5.1 (GraphPad Software, San Diego, USA) was used to calculate the IC50 and plot the percentage of living cells versus the concentration of the drug.

M. tuberculosis H37Rv = assay: Bacteriostatic activity, proportion method, BACTEC MGIT 960, Middlebrook 7H9; type: cell-based, Mycobacterium tuberculosis; settings: for effect on growth of M. tuberculosis H37Rv culture, in words: up to the maximum tested concentration; for MIC50: 50% inhibition of mycobacterial growth
[4] = Cytotoxic effect in MDCK cell culture (MTS); type: cell-based; settings: dog
Description: (§2) Multiple dilutions of solutions of all compounds were prepared in 24-well plates by titration into 8 wells, starting from a dilution of 1:10 to 1:1280. The resulting serial dilutions were transferred to the wells of the test plates with cells. Each point was tested in 4 parallel wells. The working medium was added to the wells of the cell control. […] Then, the culture medium was removed from the plates, and 100 μL of the medium and 20 μL of the MTS solution were added to the cell culture monolayer in each well. After incubation for 3 hours at 37°C, the results were recorded on a BIO-RAD automatic reader at a wavelength of 490 nm. Reference filter - 630 nm.
(§3) To obtain statistically reliable results, the experiments were performed 2-3 times. The values of CC50 and IC50 were calculated using generally accepted methods for biological research, as implemented in the Microsoft Excel 5.0 and GraphPad Prism 6.01 software packages. The working model for CC50 analysis was a 4-parameter logistic curve equation (menu items “Nonlinear regression” - “Sigmoidal dose-response (variable slope)”). For IC50 analysis, a 4-parameter logistic curve equation was adopted (menu items “Nonlinear regression” - “log (inhibitor) vs. response (variable slope)”). Based on the obtained data, the selectivity index (SI) was calculated using the equation: SI = CC50/ IC50.

SARS-CoV-2 = assay: microbe, parasite or virus in culture; type: cell-based; settings: for IC50: Vero E6
[5] = test system: influenza virus A/California/7/2009 (H1N1)pdm09; assay: microbe, parasite or virus in culture; type: cell-based, human influenza virus A; settings: for maximum reduction of the infectious titer: MDCK cell culture; for SI (selectivity index): ratio of CD50 (CC50) to IC50, MDCK
[6] = test system: SH-SY5Y, K-562, HL-60, GBM5522 cells; assay: Cytotoxicity screening, summary over the cancer cell panel; type: cell-based
Description: as §1
Cytotoxicity screening of the synthesized indazole derivatives was performed on the cell line of neuroblastoma SH-SY5Y, lymphoblastic cells K-562, promyeloblastic cells HL-60, low-passage variant of highly differentiated multiform glioblastoma GBM5522 (Table 2).

MDCK cells = assay: Cytotoxic effect in MDCK cell culture (MTS); type: cell-based; settings: MDCK; concentration reducing the cell number by 50%
Description: as §2, §3

mycobacteria = test system: mycobacteria; design: method as in PMID 27704782; settings: growth of mycobacteria; cited from earlier work
M. tuberculosis [7] = settings: cited from earlier work
white outbred mice = assay: in vivo; type: in vivo
Description: (§4) The toxicity of the compound was studied according to published procedure in compliance with the guidelines.
(§5) In this regard, one representative of the group, lead compound 8, was studied for acute toxicity in […] mice. White outbred mice of both sexes, weighing 25-30 g and aged 12-13 weeks, were used as biomodels. The animals were obtained from the nursery of the Federal State Unitary Enterprise «Research Institute for Hygiene, Toxicology and Occupational Pathology» of the Federal Medical and Biological Agency of Russia. The total number of animals was 20 heads. The experimental and control groups consisted of 4 animals with an equal number of males and females.
(§6) The toxic effect of the specified substance was studied using the described procedure. The substance was administered intragastrically using an atraumatic metal probe at a rate of 0.05 mL per 10 g of body weight in a dose range from 20 mg/kg to 80 mg/kg. Control animals received the solvent (99% DMSO) in the same volume in a similar way.
(§7) After the substance was administered, the animals were continuously observed for 4 hours, then periodically for 14 days, recording clinical manifestations of intoxication and the fact of death, after which lethal doses were calculated.
(§8) Dead animals were autopsied as soon as possible after death, macroscopic manifestations of the effect of the test compound were noted, and internal organs were collected for subsequent histological examination as described earlier.
(§9) Lethal doses were calculated using the probit analysis method, as described by D.J. Finney, in Microsoft Excel 2013 on the 14th day of the experiment.

in vivo = type: in vivo, mice; settings: both sexes, white outbred, mouse, in vivo, po; mice, single intragastric administration, day 14
Description: as §4, §5, §6, §7, §8, §9

[8] = test system: continuous leukemia cell lines; design: method as in PMID 28587395, PMID 11531262; settings: read-out: half-maximal effective concentrations; cited from earlier work
mouse = mouse model studies; cited from earlier work
[9] = Severe acute respiratory syndrome coronavirus 2, Vero C1008
[10] = 75% inhibition of mycobacterial growth
[11] = Mycobacterium tuberculosis, H37RV, read-out: MIC 50
[12] = mice, single intragastric administration, day 14
[13] = Mycobacterium tuberculosis, H37RV, 75% inhibition of mycobacterial growth

| Compound | IC50 (HL60 leukemia cells; Homo sapiens, HL-60) [µM] | IC50 (K562 leukemia cells; Homo sapiens) [µM] | IC50 ([2]; Homo sapiens) [µM] | IC50 ([3]; 48 h) [µM] | CC50 at 66 h [4] [µM] | Δlgmax (SARS-CoV-2) | IC50 (SARS-CoV-2; [9]) [µM] | Δlgmax [5] | IC50 ([5]; H1N1, MDCK) [µM] | SI (selectivity index) [5] | MIC50 (M. tuberculosis H37Rv; [11]) | also measured |
| --- | --- | --- | --- | --- | --- | --- | --- | --- | --- | --- | --- | --- |
| O=C(N/N=C/c1ccc2c[nH]nc2c1)c1ccncc1 [Compound 5] | – | – | – | – | – | – | – | – | – | – | – | MIC (M. tuberculosis [1]): 0.11 µM (≈ 0.0292 µg/mL) |
| c1cncc(-c2ccc3[nH]ncc3c2)c1 [Compound 10, 5-(pyridin-3-yl)-1H-indazole] | > 100 | 5.5 ± 1.5 | 14.3 ± 5 | 95.4 ± 5.2 | 610 | 0.75 | > 25 | 1.5 | 25 | 24,4 | – | effect on growth of M. tuberculosis H37Rv culture, in words (M. tuberculosis H37Rv): did not affect the growth; also recorded: completely devoid of the ability to suppress the growth of mycobacteria; maximum reduction of the infectious titer [5]: 1.5 logTCID50 |
| 6-(cyclopenten-1-en-1-yl)-1H-indazole [Compound 12] | – | – | – | – | – | 0.5 | – | 0.25 | – | – | – | IC50 (HL60 leukemia cells): > 100 µM; IC50 (K562 leukemia cells): 22.3 ± 4.3 µM; IC50 [2]: > 100 µM; cytotoxicity in words ([6]; cancer cell lines panel): inactive; IC50 ([3]; GBM5522, 48 h): > 100 µM; MIC50 (M. tuberculosis H37Rv): 40 µg/mL; MIC50 (M. tuberculosis H37Rv; read-out: MIC 50): 217 µM; MIC (M. tuberculosis H37Rv; [10]): 217 µM; MIC 75 (M. tuberculosis H37Rv; [10]): 40 µg/mL; effect on growth of M. tuberculosis H37Rv culture, in words (M. tuberculosis H37Rv): best antibacterial activity; CC50 (MDCK cells): 4 µM; IC50 (SARS-CoV-2): > 3 µM; IC50 ([5]; read-out: IC50): > 2 µM |
| Cc1n[nH]c(C)c1S(=O)(=O)Nc1ccc2cn[nH]c2c1 [Compound 4, N-(1H-indazol-6-yl)-3,5-dimethyl-1H-pyrazole-4-sulfonamide] | – | – | – | – | – | – | – | – | – | – | – | MIC (mycobacteria): 2 µM (≈ 0.583 µg/mL) |
| c1ncc(-c2ccc3cn[nH]c3c2)cn1 [Compound 11, 6-(pyrimidin-5-yl)-1H-indazole] | > 100 | > 100 | > 100 | > 100 | 1120 | 0 | > 200 | 0.5 | > 200 | <5 | 60 µg/mL and 306 µM | cytotoxicity in words [6]: inactive |
| CCOC(=O)C1=C[C@@H](OC(CC)CC)[C@H](NC(C)=O)[C@@H](N)C1 [Oseltamivir, (3R,4R,5S)-4-acetamido-5-amino-3-(1-ethylpropo-xy)-1-cyclohexene-1-carboxylic acid ethyl ester phosphate salt, reference compound] | – | – | – | – | 820 | – | – | 6.0 | 0.61 | – | – | – |
| CO[C@H]1/C=C/O[C@@]2(C)Oc3c(C)c(O)c4c(O)c(c(/C=N/N5CCN(C)CC5)c(O)c4c3C2=O)NC(=O)/C(C)=C\C=C\[C@H](C)[C@H](O)[C@@H](C)[C@@H](O)[C@@H](C)[C@H](OC(C)=O)[C@@H]1C [rifampicin] | – | – | – | – | – | – | – | – | – | – | – | critical concentration (M. tuberculosis [7]; control drugs): 0.5 μg/mL and 0.61 µM |
| c1cc2cn[nH]c2cc1-c1cn[nH]c1 [Compound 8, 6-(1H-pyrazol-4-yl)-1H-indazole] | 9.9 ± 0.8 | 6.7 ± 0.8 | 4.2 ± 0.9 | 13.8 ± 1.1 | 330 | 0.75 | > 6 | 2.0 | 6 | 55 | 40 µg/mL and 217 µM | cytotoxicity in words [6]: significant cytotoxicity; IC50 ([6]; SH-SY5Y, K-562, HL-60, GBM5522, read-out: IC50 range over cancer cell lines): 4 to 14 µM; Number of Animals in the Group/Number of Dead (white outbred mice; 20 mg/kg intragastric): 4/0; Number of Animals in the Group/Number of Dead (white outbred mice; 40 mg/kg intragastric): 4/2; Number of Animals in the Group/Number of Dead (white outbred mice; 50 mg/kg intragastric): 4/3; necropsy findings (white outbred mice; 80 mg/kg and 50 mg/kg, dead animals): uncoagulated blood was found in the heart, pulmonary hyperemia was present, and blood was observed in the chest; Number of Animals in the Group/Number of Dead (white outbred mice; 80 mg/kg intragastric): 4/4; pathomorphological examination (white outbred mice; 80 mg/kg, male mouse): focal hemorrhages in the gastric mucosa and pronounced swelling and edema of the submucosal layer; clinical picture of intoxication (white outbred mice; lethal doses, first day after administration): convulsions, dysfunction of the hind limbs, increasing hypodynamia; LD10 (white outbred mice; [12]): 26,2 mg/kg; LD16 (white outbred mice; [12]): 28,8 mg/kg; LD84 (white outbred mice; [12]): 55,6 mg/kg; LD50 (in vivo): 40 mg/kg; MIC (M. tuberculosis H37Rv; [13]): 60 µg/mL and 326 µM; maximum reduction of the infectious titer [5]: 2.0 logTCID50 |
| c1ncc(-c2ccc3[nH]ncc3c2)cn1 [Compound 9, 5-(pyrimidin-5-yl)-1H-indazole] | > 100 | > 100 | > 100 | > 100 | 1050 | 0 | > 50 | 1.0 | > 100 | <10 | 40 µg/mL and 204 µM | cytotoxicity in words [6]: inactive; MIC (M. tuberculosis H37Rv; [13]): 40 µg/mL and 204 µM; effect on growth of M. tuberculosis H37Rv culture, in words (M. tuberculosis H37Rv): best antibacterial activity |
| c1cc2[nH]ncc2cc1-c1cn[nH]c1 [Compound 7, 5-(1H-pyrazol-4-yl)-1H-indazole] | 23.7 ± 5 | 24.4 ± 3.1 | 15.5 ± 5.3 | 36.8 ± 2 | 100 | 0.25 | > 50 | 0 | > 20 | <5 | 40 µg/mL and 217 µM | MIC (M. tuberculosis H37Rv; [13]): 60 µg/mL and 326 µM |
| NC(=O)c1cnccn1 [pyrazinamide] | – | – | – | – | – | – | – | – | – | – | – | critical concentration (M. tuberculosis [7]): 100 μg/mL and 812 µM |
| NNC(=O)c1ccncc1 [isoniazid] | – | – | – | – | – | – | – | – | – | – | – | critical concentration (M. tuberculosis [7]; control drugs): 1 μg/mL and 0.73 µM; MIC (M. tuberculosis [1]): 0.36 µM (≈ 0.0494 µg/mL) |
| COc1cc([C@@H]2c3cc4c(cc3[C@@H](O[C@@H]3O[C@@H]5CO[C@@H](C)O[C@H]5[C@H](O)[C@H]3O)[C@H]3COC(=O)[C@H]23)OCO4)cc(OC)c1O [etoposide] | – | – | – | – | – | – | – | – | – | – | – | EC50 [8]: 10 to 100 µM; nonlethal doses (mouse): ~ 50 mg/kg |
